{"source": "patent EP4001279A1", "about": "“NOVEL SPIROPYRROLIDINE DERIVED ANTIVIRAL AGENTS” (Enanta Pharmaceuticals, Inc., priority 2020, dated 2022)"}
{"test_system": "229E human corona virus (hCoV)", "assay": "229E live virus assay (CPE, ATPlite readout in MRC-5 cells)", "type": "cell-based, hCoV-229E", "details": "Human coronavirus 229E, MRC5, hCoV-229E live virus, MOI 0.05, ATPlite readout, run in duplicate", "units": {"EC50": "nM"}}
{"smiles": "CC(C)C[C@@H](C(=O)N1C[C@]2(C[C@H]1C#N)C(=O)Nc1ccccc12)N(C)C(=O)c1nnc(C2CC2)o1", "note": "[Example 354]", "EC50": "< 100"}
{"smiles": "CC(C)C[C@@H](C(=O)N1C[C@]2(C[C@H]1C#N)C(=O)Nc1ccccc12)N(C)C(=O)c1nnc(-c2ccc(F)cc2)o1", "note": "[Example 355]", "EC50": "< 100"}
{"smiles": "CC(C)C[C@@H](C(=O)N1C[C@]2(C[C@H]1C#N)C(=O)Nc1ccccc12)N(C)C(=O)c1nnn(C(C)(C)C)n1", "note": "[Example 356]", "EC50": "< 100"}
{"smiles": "COc1cccc2[nH]c(C(=O)N(C)[C@@H](COC(C)(C)C)C(=O)N3C[C@]4(C[C@H]3C#N)C(=O)Nc3ccccc34)cc12", "note": "[Example 370]", "EC50": "< 100"}
{"smiles": "CN(C(=O)c1cc2c(F)cc(F)cc2[nH]1)[C@@H](COC(C)(C)C)C(=O)N1C[C@]2(C[C@H]1C#N)C(=O)Nc1ccccc12", "note": "[Example 371]", "EC50": "< 100"}
{"smiles": "C[C@@H](C(=O)N(C)[C@@H](CC(C)(C)C)C(=O)N1C[C@]2(C[C@H]1C#N)C(=O)Nc1ccccc12)c1cnn(C)c1", "note": "[Example 372]", "EC50": "< 100"}
{"smiles": "C[C@H](C(=O)N(C)[C@@H](CC(C)(C)C)C(=O)N1C[C@]2(C[C@H]1C#N)C(=O)Nc1ccccc12)c1cnn(C)c1", "note": "[Example 373]", "EC50": "100 to 1000"}
{"smiles": "CN(C(=O)C(F)(F)F)[C@@H](CC(C)(C)C)C(=O)N1C[C@]2(C[C@H]1C#N)C(=O)Nc1ccccc12", "note": "[Example 374]", "EC50": "100 to 1000"}
{"smiles": "CN(C(=O)c1cc2c(OC3CC3)cccc2[nH]1)[C@@H](CC(C)(C)C)C(=O)N1C[C@]2(C[C@H]1C#N)C(=O)Nc1ccccc12", "note": "[Example 375]", "EC50": "< 100"}
{"smiles": "[2H]C([2H])([2H])N(C(=O)c1nc(-c2ccccc2)c[nH]1)[C@@H](CC(C)(C)C)C(=O)N1C[C@]2(C[C@H]1C#N)C(=O)Nc1ccccc12", "note": "[Example 376]", "EC50": "< 100"}
{"smiles": "[2H]C([2H])([2H])N(C(=O)c1cn(-c2ccc(Cl)cc2)nn1)[C@@H](CC(C)(C)C)C(=O)N1C[C@]2(C[C@H]1C#N)C(=O)Nc1ccccc12", "note": "[Example 377]", "EC50": "< 100"}
{"smiles": "[2H]C([2H])([2H])N(C(=O)c1cn(C2CC2)nn1)[C@@H](CC(C)(C)C)C(=O)N1C[C@]2(C[C@H]1C#N)C(=O)Nc1ccccc12", "note": "[Example 378]", "EC50": "< 100"}
{"smiles": "[2H]C([2H])([2H])N(C(=O)c1cn(C2CCC2)nn1)[C@@H](CC(C)(C)C)C(=O)N1C[C@]2(C[C@H]1C#N)C(=O)Nc1ccccc12", "note": "[Example 379]", "EC50": "< 100"}
{"smiles": "[2H]C([2H])([2H])N(C(=O)c1cn(CC(F)(F)F)nn1)[C@@H](CC(C)(C)C)C(=O)N1C[C@]2(C[C@H]1C#N)C(=O)Nc1ccccc12", "note": "[Example 380]", "EC50": "< 100"}
{"smiles": "[2H]C([2H])([2H])N(C(=O)c1ccc2ncc(C(F)(F)F)cc2c1)[C@@H](CC(C)(C)C)C(=O)N1C[C@]2(C[C@H]1C#N)C(=O)Nc1ccccc12", "note": "[Example 381]", "EC50": "< 100"}
{"smiles": "[2H]C([2H])([2H])N(C(=O)c1cc(OC(F)(F)F)c2ncccc2c1)[C@@H](CC(C)(C)C)C(=O)N1C[C@]2(C[C@H]1C#N)C(=O)Nc1ccccc12", "note": "[Example 382]", "EC50": "< 100"}
{"smiles": "[2H]C([2H])([2H])N(C(=O)c1cc(OC(F)F)c2ncccc2c1)[C@@H](CC(C)(C)C)C(=O)N1C[C@]2(C[C@H]1C#N)C(=O)Nc1ccccc12", "note": "[Example 383]", "EC50": "< 100"}
{"smiles": "CN(C(=O)c1cn(C(C)(C)C)nn1)[C@@H](CC1CC1)C(=O)N1C[C@]2(C[C@H]1C#N)C(=O)Nc1ccccc12", "note": "[Example 402]", "EC50": "< 100"}
{"smiles": "CN(C(=O)c1cc2c(F)cc(F)c(F)c2[nH]1)[C@@H](CCC(C)(C)C)C(=O)N1C[C@]2(C[C@H]1C#N)C(=O)Nc1ccccc12", "note": "[Example 412]", "EC50": "< 100"}
{"smiles": "CCCOC[C@@H](C(=O)N1C[C@]2(C[C@H]1C#N)C(=O)Nc1ccccc12)N(C)C(=O)c1cc2c(F)cc(F)cc2[nH]1", "note": "[Example 413]", "EC50": "< 100"}
{"smiles": "CN(C(=O)[C@H](O)C(C)(C)C)[C@@H](CC1CC1)C(=O)N1C[C@]2(C[C@H]1C#N)C(=O)Nc1ccccc12", "note": "[Example 417]", "EC50": "< 100"}
{"smiles": "CCCC[C@H](NC(=O)[C@@H](O)c1ccc(F)cc1)C(=O)N1C[C@]2(C[C@H]1C#N)C(=O)Nc1ccccc12", "note": "[Example 418]", "EC50": "100 to 1000"}
{"smiles": "CCCC[C@H](NC(=O)[C@H](O)c1ccc(F)cc1)C(=O)N1C[C@]2(C[C@H]1C#N)C(=O)Nc1ccccc12", "note": "[Example 419]", "EC50": "100 to 1000"}
{"smiles": "CN(C(=O)[C@H](O)Cc1ccc(F)cc1)[C@@H](CC1CC1)C(=O)N1C[C@]2(C[C@H]1C#N)C(=O)Nc1ccccc12", "note": "[Example 423]", "EC50": "< 100"}
{"smiles": "CC(C)C[C@@H](O)C(=O)N(C)[C@@H](CC1CC1)C(=O)N1C[C@]2(C[C@H]1C#N)C(=O)Nc1ccccc12", "note": "[Example 424]", "EC50": "< 100"}
{"smiles": "[2H]C([2H])([2H])N(C(=O)[C@@H](O)c1ccccc1)[C@@H](CC(C)(C)C)C(=O)N1C[C@]2(C[C@H]1C#N)C(=O)Nc1ccccc12", "note": "[Example 427]", "EC50": "< 100"}
{"smiles": "[2H]C([2H])([2H])N(C(=O)[C@H](O)c1ccccc1)[C@@H](CC(C)(C)C)C(=O)N1C[C@]2(C[C@H]1C#N)C(=O)Nc1ccccc12", "note": "[Example 428]", "EC50": "< 100"}
{"smiles": "CC(C)C[C@@H](C(=O)N1C[C@]2(C[C@H]1C#N)C(=O)Nc1ccccc12)N(C(=O)C(F)(F)F)C(C)C", "note": "[Example 432]", "EC50": "> 1000"}
{"smiles": "CC(C)(C)C[C@H](NC(=O)Nc1ccccc1)C(=O)N1C[C@]2(C[C@H]1C#N)C(=O)Nc1ccccc12", "note": "[Example 435]", "EC50": "< 100"}
{"smiles": "CC(C)(C)C[C@H](NC(=O)Nc1ccc(F)cc1F)C(=O)N1C[C@]2(C[C@H]1C#N)C(=O)Nc1ccccc12", "note": "[Example 436]", "EC50": "< 100"}
{"smiles": "CC(C)(C)C[C@H](NC(=O)Nc1c(F)cccc1F)C(=O)N1C[C@]2(C[C@H]1C#N)C(=O)Nc1ccccc12", "note": "[Example 437]", "EC50": "< 100"}
{"smiles": "Cc1cccc(C)c1NC(=O)N[C@@H](CC(C)(C)C)C(=O)N1C[C@]2(C[C@H]1C#N)C(=O)Nc1ccccc12", "note": "[Example 438]", "EC50": "< 100"}
{"smiles": "CC(C)(C)C[C@H](NC(=O)Nc1ccc2ccccc2c1)C(=O)N1C[C@]2(C[C@H]1C#N)C(=O)Nc1ccccc12", "note": "[Example 439]", "EC50": "< 100"}
{"smiles": "CC(C)(C)C[C@H](NC(=O)NC1CCCCC1)C(=O)N1C[C@]2(C[C@H]1C#N)C(=O)Nc1ccccc12", "note": "[Example 440]", "EC50": "< 100"}
{"smiles": "CC(C)(C)C[C@H](NC(=O)Nc1ccc(F)cc1)C(=O)N1C[C@]2(C[C@H]1C#N)C(=O)Nc1ccccc12", "note": "[Example 441]", "EC50": "< 100"}
{"smiles": "CC(=O)C[C@@H](C(=O)N1C[C@]2(C[C@H]1C#N)C(=O)Nc1ccccc12)N(C)C(=O)c1cc2c(F)cc(F)cc2[nH]1", "note": "[Example 442]", "EC50": "< 100"}
{"smiles": "CN(C(=O)c1cc2c(F)cc(F)cc2[nH]1)[C@@H](CC(C)(C)O)C(=O)N1C[C@]2(C[C@H]1C#N)C(=O)Nc1ccccc12", "note": "[Example 443]", "EC50": "100 to 1000"}
{"smiles": "CN(C(=O)c1cc2c(F)cc(F)c(F)c2[nH]1)[C@@H](CC(C)(C)O)C(=O)N1C[C@]2(C[C@H]1C#N)C(=O)Nc1ccccc12", "note": "[Example 444]", "EC50": "100 to 1000"}
{"smiles": "CC(C)(F)C[C@H](NC(=O)COc1ccc(F)cc1F)C(=O)N1C[C@]2(C[C@H]1C#N)C(=O)Nc1ccc(Cl)cc12", "note": "[Example 445]", "EC50": "100 to 1000"}
{"smiles": "CC(C)(F)C[C@H](NC(=O)c1cc2ccccn2n1)C(=O)N1C[C@]2(C[C@H]1C#N)C(=O)Nc1ccc(Cl)cc12", "note": "[Example 446]", "EC50": "100 to 1000"}
{"smiles": "CC(C)(F)C[C@H](NC(=O)c1cccc(OC(F)(F)F)c1)C(=O)N1C[C@]2(C[C@H]1C#N)C(=O)Nc1ccc(Cl)cc12", "note": "[Example 447]", "EC50": "100 to 1000"}
{"smiles": "CC(C)(C)C[C@H](NC(=O)c1cc2c(F)cc(F)cc2[nH]1)C(=O)N1C[C@]2(C[C@H]1C#N)C(=O)Nc1ccc(Cl)cc12", "note": "[Example 448]", "EC50": "< 100"}
{"smiles": "CC(C)(F)C[C@H](NC(=O)c1ccc(F)cc1F)C(=O)N1C[C@]2(C[C@H]1C#N)C(=O)Nc1ccc(Cl)cc12", "note": "[Example 449]", "EC50": "100 to 1000"}
{"smiles": "CC(C)(C)C[C@H](NC(=O)c1cc2c(Cl)cccc2[nH]1)C(=O)N1C[C@]2(C[C@H]1C#N)C(=O)Nc1ccc(Cl)cc12", "note": "[Example 450]", "EC50": "< 100"}
{"smiles": "N#C[C@@H]1C[C@@]2(CN1C(=O)[C@H](Cc1ccccc1F)NC(=O)c1cc3c(F)cc(F)cc3[nH]1)C(=O)Nc1ccc(Cl)cc12", "note": "[Example 451]", "EC50": "100 to 1000"}
{"smiles": "N#C[C@@H]1C[C@@]2(CN1C(=O)[C@H](Cc1ccc(F)cc1)NC(=O)c1cc3c(F)cc(F)cc3[nH]1)C(=O)Nc1ccc(Cl)cc12", "note": "[Example 452]", "EC50": "100 to 1000"}
{"smiles": "[2H]C([2H])([2H])N(C(=O)c1cc2c(F)cc(F)cc2[nH]1)[C@@H](CC(C)(C)F)C(=O)N1C[C@]2(C[C@H]1C#N)C(=O)Nc1ccc(Cl)cc12", "note": "[Example 454, N-((S)-1-((3R,5'S)-5-chloro-5'-cyano-2-oxospiro[indoline-3,3'-pyrrolidin]-1'-yl)-4-fluoro-4-methyl-1-oxopentan-2-yl)-4,6-difluoro-N-(methyl-d3)-1H-indole-2-carboxamide]", "EC50": "< 100"}
{"smiles": "CN(C(=O)c1cc2c(F)cc(F)cc2[nH]1)[C@@H](CC(C)(C)F)C(=O)N1C[C@]2(C[C@H]1C#N)C(=O)Nc1ccc(Cl)cc12", "note": "[Example 455]", "EC50": "< 100"}
{"smiles": "[2H]C([2H])([2H])N(C(=O)c1cc2c(F)cc(F)cc2[nH]1)[C@@H](CC(C)(C)F)C(=O)N1C[C@]2(C[C@H]1C#N)C(=O)Nc1cc(C(F)(F)F)ccc12", "note": "[Example 472, N-((S)-1-((3R,5'S)-5'-cyano-2-oxo-6-(trifluoromethyl)spiro[indoline-3,3'-pyrrolidin]-1-yl)-4-fluoro-4-methyl-1-oxopentan-2-yl)-4,6-difluoro-N-(methyl-d3)-1H-indole-2-carboxamide]", "EC50": "< 100"}
{"smiles": "CN(C(=O)C1(c2ccncc2)CC1)[C@@H](CC(C)(C)F)C(=O)N1C[C@]2(C[C@H]1C#N)C(=O)Nc1ccc(Cl)cc12", "note": "[Example 473, N-((S)-1-((3R,5'S)-5-chloro-5'-cyano-2-oxospiro[indoline-3,3'-pyrrolidin]-1'-yl)-4-fluoro-4-methyl-1-oxopentan-2-yl)-N-methyl-1-(pyridin-4-yl)cyclopropane-1-carboxamide]", "EC50": "100 to 1000"}
{"smiles": "[2H]C([2H])([2H])N(C(=O)Cc1ccncc1)[C@@H](CC(C)(C)F)C(=O)N1C[C@]2(C[C@H]1C#N)C(=O)Nc1ccc(Cl)cc12", "note": "[Example 474]", "EC50": "100 to 1000"}
{"smiles": "[2H]C([2H])([2H])N(C(=O)C1(c2ccncc2)CC1)[C@@H](CC(C)(C)F)C(=O)N1C[C@]2(C[C@H]1C#N)C(=O)Nc1ccc(Cl)cc12", "note": "[Example 475]", "EC50": "100 to 1000"}
{"smiles": "CN(C(=O)Cc1cccnc1)[C@@H](CC(C)(C)F)C(=O)N1C[C@]2(C[C@H]1C#N)C(=O)Nc1ccc(Cl)cc12", "note": "[Example 476]", "EC50": "100 to 1000"}
